Measurements published in PubChem BioAssay (NCI).
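In this assay, cells in 96-well plates receive the compound at five concentrations for 48 hours. Endpoints are linearly interpolated between the surrounding concentrations. At the GI50, growth is halved. TGI denotes the concentration required for complete inhibition of growth.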

Key:
Test in all cases: NCI tumour cell line growth inhibition, 48 h
UO-31 renal = system: UO-31 renal
SW-620 colon = system: SW-620 colon
SF-539 CNS = system: SF-539 CNS
SNB-19 CNS = system: SNB-19 CNS
NCI-H460 lung = system: NCI-H460 lung
IGROV1 ovarian = system: IGROV1 ovarian
HOP-62 NSCLC = system: HOP-62 NSCLC
SK-MEL-5 melanoma = system: SK-MEL-5 melanoma
OVCAR-4 ovarian = system: OVCAR-4 ovarian
CAKI-1 renal = system: CAKI-1 renal

Row | Structure (SMILES) | TGI (UO-31 renal) [µM] | TGI (SW-620 colon) [µM] | TGI (SF-539 CNS) [µM] | TGI (SNB-19 CNS) [µM] | TGI (NCI-H460 lung) [µM] | TGI (IGROV1 ovarian) [µM] | TGI (HOP-62 NSCLC) [µM] | TGI (SK-MEL-5 melanoma) [µM] | TGI (OVCAR-4 ovarian) [µM] | TGI (CAKI-1 renal) [µM] | GI50 (UO-31 renal) [µM] | GI50 (SW-620 colon) [µM] | GI50 (SF-539 CNS) [µM] | GI50 (CAKI-1 renal) [nM] | GI50 (SNB-19 CNS) [µM] | GI50 (NCI-H460 lung) [µM] | GI50 (HOP-62 NSCLC) [µM] | GI50 (SK-MEL-5 melanoma) [µM] | GI50 (OVCAR-4 ovarian) [µM] | GI50 (IGROV1 ovarian) [µM]
1 | C=C1C(=O)OC2/C=C(\C=O)CC/C=C(\C)C(O)C[C@@H]12 (stereo partly drawn) | 26.8 | 10.9 | 27.2 | 29.1 | 27.4 | 32.3 | 61.3 | 22.4 | 27.5 |  |  |  |  |  |  |  |  |  |  | 
2 | CC(C)Oc1cc(O)c2c(c1)OCC=C2CCC(=O)O | 89.1 | > 100 |  | > 100 | > 100 | > 100 | > 100 | 36.5 | > 100 | > 100 |  |  |  |  |  |  |  |  |  | 
3 | COC(=O)C1=C(C(=O)OC)SC(=C(Cl)C(=S)Sc2ccccc2N)S1 | > 100 | > 100 | 42.5 | > 100 | 35.5 |  | 33.2 | 49.2 | > 100 | > 100 | 27 | 55.4 | 18.3 | 41600 | 32 | 19.6 | 13.5 | 19.9 | 80.8 | 
4 | O=C1CCC(O)=C1O |  | > 100 | > 100 | > 100 | > 100 | > 100 | > 100 | > 100 | > 100 | > 100 |  |  |  |  |  |  |  |  |  | 
5 | O=C1Nc2cccc3cc(NCC(O)CCl)cc1c23 (stereo not drawn) | 92.1 | > 100 |  | > 100 | > 100 | > 100 | > 100 | > 100 | > 100 | > 100 |  |  |  |  |  |  |  |  |  | 
6 | CCCCCCN(CCCCCC)CC(O)c1ccc2c3c(cccc13)CC2 (stereo not drawn) | 17.3 | 14.9 | 15.2 | 26.6 | 17 |  | 24.7 | 17.9 | 36.8 | 9.35 | 3.09 | 3.17 | 3.83 | 1960 | 11.8 | 3.36 | 12.1 | 4.74 | 10.3 | 
7 | S=c1nc(-c2cccnc2)[nH][nH]1 |  | > 100 |  | > 100 | > 100 |  | > 100 | > 100 | > 1 | > 1 |  |  |  |  |  |  |  |  |  | 
8 | COc1ccc(/C=C2\C(=O)N(C(=O)Cc3ccccc3)N=C2C)cc1OC | > 100 | > 100 | > 100 | > 100 |  |  | > 100 |  | > 100 | > 100 |  |  |  |  |  |  |  |  |  | 
9 | O=c1[nH]c(=O)n(C2OC3COC2C3O)cc1F (stereo not drawn) | > 100 | > 100 |  | > 100 | > 100 |  | > 100 | > 100 | > 100 | > 100 |  |  |  |  |  |  |  |  |  | 
10 | O=C([CH-]C(=O)C(F)(F)F)c1ccccc1.O=C([CH-]C(=O)C(F)(F)F)c1ccccc1.O=C([CH-]C(=O)C(F)(F)F)c1ccccc1.O=C([CH-]C(=O)C(F)(F)F)c1ccccc1.[Eu+3].c1ccncc1 |  | > 100 | 92.8 | 94.8 | 43.7 | > 100 | 64 | > 100 | > 100 |  |  | 11.9 | 16 |  | 4.33 | 5.62 | 8.37 | 11.2 | 7.62 | 7.88
11 | Cc1cc(N/N=C/c2nc(-c3ccc(Cl)cc3)oc2C)c2cc(Cl)ccc2n1 | 25.2 | 3.51 | 3.46 | 16.1 |  | 12.6 | 3.76 | 20.8 | 3.33 | 4.33 | 12.6 | 1.56 | 1.88 | 2000 | 3.95 |  | 1.92 | 8.64 | 1.68 | 3.38
12 | CC1(C)C2CCC3(C2)CS(=O)(=O)N2OC231 (stereo not drawn) | 31.3 | 32.9 | 33.6 | > 100 | 37.1 | 43.4 | > 100 | 44.8 |  | 30.4 |  |  |  |  |  |  |  |  |  | 
13 | CN=C1SC(=Nc2ccc(N(C)C)cc2)N1C | > 100 | > 100 | > 100 | > 100 | > 100 | > 100 | > 100 | > 100 | > 100 |  |  |  |  |  |  |  |  |  |  | 
14 | Cc1ccc2c(c1)C(c1cccc3ccccc13)OC2=O (stereo not drawn) | > 100 | > 100 |  | > 100 | > 100 | > 100 | 81.7 | > 100 | > 100 | > 100 |  |  |  |  |  |  |  |  |  | 
15 | CCN1CSC(=S)N(CC)C1 | > 100 | > 100 | 76 | > 100 | > 100 | > 100 | 71.1 | > 100 | > 100 |  |  |  |  |  |  |  |  |  |  | 
16 | C1=CC=C2NCCOCCNC3=CC=CC=CC3=NCCOCCN=C2C=C1 | > 100 | > 100 |  | > 100 | > 100 | > 100 | > 100 | > 100 | > 100 | > 100 |  |  |  |  |  |  |  |  |  | 
17 | N.N.N.N.N.N.O=N[O-].[Br-].[Co+3].[Co+3].[OH3+].[OH3+] | > 100 | > 100 | > 100 | > 100 |  | > 100 |  |  |  |  | > 100 | > 100 | > 100 |  | > 100 |  |  |  |  | > 100
